In patent US9700543B2, “GLP-1 receptor stabilizers and modulators” (Celgene International II SÀRL, priority 2011, dated 2017):

Key:
[1] = Determination of absolute oral bioavailability in rats; type: in vivo; details: rat, plasma; fasted female Sprague-Dawley rats; oral solution 5 mg/kg, intravenous 1 mg/kg
Experimental: Determination of Absolute Oral Bioavailability in Rats
All pharmacokinetic studies were conducted in fasted female Sprague-Dawely rats (Simonsen Laboratories or Harlan Laboratories). Rats were housed in an ALAAC accredited facility and the research was approved by the facilities Institutional Animal Care and Use Committee (IACUC). The animals were acclimated to the laboratory for at least 48 h prior to initiation of experiments.
Compounds were formulated in 20% hydroxy beta cyclodextrin or 20% captisol and 80%-25 mM NaPO4 Buffer (pH 8) (intravenous infusion), or 5% DMSO/5% Tween20 and 90% water (oral gavage or intraperitoneal injection). The concentration of the dosing solutions was verified by HPLC-UV. For intravenous dosing, compounds were administered into the tail vein to manually restrained animals (n=3 rats/compound). The intravenous dose was 1 mg/kg. Oral dosing was by gavage using a standard stainless steel gavage needle (n=2-4 rats/compound). The oral solution dose was 5 mg/kg. For compounds 1 and 3, the oral solution dose was 30 mg/kg. For both routes of administration, blood was collected into BD Microtainer tubes with Dipotassium EDTA as the anticoagulantant eight time-points after dosing with the final sample drawn 24 h post dose Plasma was separated by centrifugation and transferred to a polypropylene 96-well plate and kept at 4° C. until analysis.
Proteins were precipitated by adding 150 μL acetonitrile to 50 μL of plasma. Plates were mixed for 1 min on a plate shaker to facilitate protein precipitation and then centrifuged at 3,000 rpm for 10 min to pellet protein. The supernatant was transferred to a clean plate and centrifuged at 3,000 rpm for 10 min to pellet any remaining solid material prior to LC/MS/MS analysis. Calibration curve standards were prepared by spiking 54 compound stock in DMSO into rat plasma from untreated animals. An eight point standard curve spanning a range of 0.14 nM to 300 nM was included with each bio-analytical run. The standards were processed identically to the rat pharmacokinetic samples.
Concentrations in the rat pharmacokinetic samples were determined using a standardized HPLC-LC/MS/MS method relative to the eight point standard curve. The system consisted of a Leap CTC Pal injector, Agilent 1200 HPLC with binary pump coupled with an Applied Biosystems 4000 QTrap. Compounds were chromatographed on a Phenomenex Luna C8(2) 20×2 mm 2 um Mercury Cartridge with Security Guard. A gradient method was used with mobile phase A consisting of 0.1% formic acid in water and mobile phase B consisting of 0.1% formic acid in acetonitrile at flow rates varying from 0.7 to 0.8 mL/min. Ions were generated in positive ionization mode using an electrospray ionization (ESI) interface. Multiple reaction monitoring (MRM) methods were developed specific to each compound. The heated nebulizer was set at 500° C. with a nebulizer current of 5.1 μA. Collision energies used to generate daughter ions ranged between 29 and 80 V. Peak area obtained from MRM of the mass transitions specific for each compound were used for quantification. The limit of quantification of the method was typically 1.2 nM. Data were collected and analyzed using Analyst software version 1.5.1. Blood concentration versus time data were analyzed using non-compartmental methods (WinNonlin Phoenix version 6.2; model 200 for oral or intraperitoneal dosing and model 202 for intravenous infusion). Absolute oral bioavailability (%) was calculated using the following expression: (Oral AUC×IV Dose)/(IV AUC×Oral Dose)×100.

[2] = target: T1, GLP-1R (Homo sapiens, UniProt P43220); test: EC20 GLP-1(9-36) PAM cAMP assay: dose response of compound in the presence of fixed concentration of GLP-1(9-36); type: cell-based; details: compound dose response with fixed GLP-1(9-36), GLP-1R CRE-bla CHO-K1 cells; for EC20 GLP-1 (9-36) PAM Activity max cAMP: Emax as total cAMP; for EC50: cAMP
T1 construct: host or cells: CRE-bla CHO-K1
T1 sequence (P43220 24-463): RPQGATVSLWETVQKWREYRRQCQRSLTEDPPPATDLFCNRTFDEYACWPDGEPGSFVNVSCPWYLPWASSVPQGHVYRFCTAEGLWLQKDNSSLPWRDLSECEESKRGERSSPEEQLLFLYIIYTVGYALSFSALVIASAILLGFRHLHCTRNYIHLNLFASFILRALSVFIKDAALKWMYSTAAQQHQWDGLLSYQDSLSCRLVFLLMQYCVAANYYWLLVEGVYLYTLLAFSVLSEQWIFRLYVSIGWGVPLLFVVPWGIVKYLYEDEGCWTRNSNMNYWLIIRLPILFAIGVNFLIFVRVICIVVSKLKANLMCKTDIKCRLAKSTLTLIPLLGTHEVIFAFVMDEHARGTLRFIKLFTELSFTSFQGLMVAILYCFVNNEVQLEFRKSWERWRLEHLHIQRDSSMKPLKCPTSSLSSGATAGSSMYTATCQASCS
T1 sequence (P01275 100-127 partner limits assumed): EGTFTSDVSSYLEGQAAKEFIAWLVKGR
Experimental: EC20GLP-1(9-36) PAM cAMP Assay: Dose Response of Compound in the Presence of Fixed Concentration of GLP-1 (9-36)
GLP-1R CRE-bla CHO-K1 cells were seeded into 384-well white flat bottom plates at 10,000 cells/well/20 μL growth medium (DMEM-High glucose, 10% dialyzed FBS, 0.1 mM NEAA, 25 mM Hepes, 100 U/mL penicillin/100 μg/mL streptomycin, 5 μg/mL Blasticidin, 600 μg/mL Hygromycin) and incubated for 18 h at 37° C. in 5% CO2. Growth medium was replaced with 12 μL assay buffer (Hanks Balanced Salt solution, 10 mM Hepes, 0.1% BSA, pH7.4). A 5× compound dose response curve (12-point) was generated in assay buffer containing 1.5 mM IBMX, 12.5% DMSO. GLP-1(9-36) was diluted to 4.2 μM in assay buffer containing 1.5 mM IBMX and 12.5% DMSO. The 5× compound dose response was added (3 μL), followed by 0.5 μL of GLP-1(9-36) and cells were incubated for 30 min at 37° C. Direct detection of cAMP was carried out using DiscoveRx HitHunter cAMP kit according to manufacturer's instructions and luminescence was read using a SpectraMax M5 plate reader. Luminescence was converted to total cAMP using a cAMP standard curve and data was analyzed by non-linear regression to determine the EC50 and Emax.

| bioavailability [1] [%] | EC20 GLP-1 (9-36) PAM Activity max cAMP [2] [nM] | EC50 [2] [nM] | Compound |
| --- | --- | --- | --- |
| 14.8 | 302 | 200 | COc1cccc(OC)c1CC(=O)Nc1ccc(C(=O)N(CC(=O)O)Cc2ccc(-c3nc(-c4ccc(-c5ccc(C)cc5)cc4)no3)cc2)cc1 [Compound 458, 2-(4-(2-(2,6-dimethoxyphenyl)acetamido)-N-(4-(3-(4′-methyl-[1,1′-biphenyl]-4-yl)-1,2,4-oxadiazol-5-yl)benzyl)benzamido)acetic acid] |
| 2 | 297 | 300 | COc1ccc(CC(=O)Nc2ccc(C(=O)N(CC(=O)O)Cc3ccc(-c4noc(-c5ccc(-c6ccc(C)cc6)cc5)n4)cc3)cc2)c(C(F)(F)F)c1 [Compound 354, 2-(4-(2-(4-methoxy-2-(trifluoromethyl)phenyl)acetamido)-N-(4-(5-(4′-methyl-[1,1′-biphenyl]-4-yl)-1,2,4-oxadiazol-3-yl)benzyl)benzamido)acetic acid] |
| – | 307 | 500 | COc1ccc(CC(=O)Nc2ccc(C(=O)N(CC(=O)O)Cc3ccc(OC(=O)c4ccc(-c5ccc(C)cc5)cc4)cc3)c(OC)c2)c(C(F)(F)F)c1 [Compound 314, 2-(2-methoxy-4-(2-(4-methoxy-2-(trifluoromethyl)phenyl)acetamido)-N-(4-((4′-methyl-[1,1′-biphenyl]-4-carbonyl)oxy)benzyl)benzamido)acetic acid] |
| 3 | 237 | 3200 | COc1ccc(CC(=O)Nc2ccc(C(=O)N(CC(=O)O)Cc3ccc(-c4nc(-c5ccc(C)cc5)no4)cc3)cc2)c(C(F)(F)F)c1 [Compound 363, 2-(4-(2-(4-methoxy-2-(trifluoromethyl)phenyl)acetamido)-N-(4-(3-(p-tolyl)-1,2,4-oxadiazol-5-yl)benzyl)benzamido)acetic acid] |
| 19.4 | 266 | 200 | COc1ccc(OC)c(CC(=O)Nc2ccc(C(=O)N(CC(=O)O)Cc3ccc(-c4nc(-c5ccc(-c6ccc(C)cc6)cc5)no4)cc3)cc2)c1 [Compound 457, 2-(4-(2-(2,5-dimethoxyphenyl)acetamido)-N-(4-(3-(4′-methyl-[1,1′-biphenyl]-4-yl)-1,2,4-oxadiazol-5-yl)benzyl)benzamido)acetic acid] |
| 10 | 278 | 400 | COc1ccc(CC(=O)Nc2ccc(C(=O)N(CC(=O)O)Cc3ccc(-c4coc(-c5ccc(-c6ccc(C)cc6)cc5)n4)cc3)cc2)c(C(F)(F)F)c1 [Compound 364, 2-(4-(2-(4-methoxy-2-(trifluoromethyl)phenyl)acetamido)-N-(4-(2-(4′-methyl-[1,1′-biphenyl]-4-yl)oxazol-4-yl)benzyl)benzamido)acetic acid] |
| 10 | 258 | 200 | COc1cccc(OC)c1CC(=O)Nc1ccc(C(=O)N(CC(=O)O)Cc2ccc(-c3noc(-c4ccc(-c5ccc(C)cc5)cc4)n3)cc2)cc1 [Compound 411, 2-(4-(2-(2,6-dimethoxyphenyl)acetamido)-N-(4-(5-(4′-methyl-[1,1′-biphenyl]-4-yl)-1,2,4-oxadiazol-3-yl)benzyl)benzamido)acetic acid] |
| – | 248 | 1300 | COc1ccc(CC(=O)Nc2ccc(C(=O)N(CC(=O)O)Cc3ccc(OC(=O)c4ccc(-c5ccc(C)cc5)cc4)cc3)cc2)c(C(F)(F)F)c1 [Compound 192, 2-(4-(2-(4-methoxy-2-(trifluoromethyl)phenyl)acetamido)-N-(4-((4′-methyl-[1,1′-biphenyl]-4-carbonyl)oxy)benzyl)benzamido)acetic acid] |
| – | 234 | 2700 | COc1ccc(CC(=O)Nc2ccc(C(=O)N(CC(=O)O)Cc3ccc(-c4n[nH]c(-c5ccc(-c6ccc(C)cc6)cc5)n4)cc3)cc2)c(C(F)(F)F)c1 [Compound 361, 2-(4-(2-(4-methoxy-2-(trifluoromethyl)phenyl)acetamido)-N-(4-(5-(4′-methyl-[1,1′-biphenyl]-4-yl)-1H-1,2,4-triazol-3-yl)benzyl)benzamido)acetic acid] |

Second part, the compound before the results:

| Compound | bioavailability [1] [%] | EC20 GLP-1 (9-36) PAM Activity max cAMP [2] [nM] | EC50 [2] [nM] |
| --- | --- | --- | --- |
| COc1ccc(CC(=O)Nc2ccc(C(=O)N(CC(=O)O)Cc3ccc(OC(=O)c4ccc(C5CCCCC5)cc4)cc3)cc2)cc1 [Compound 39, 2-(N-(4-((4-cyclohexylbenzoyl)oxy)benzyl)-4-(2-(4-methoxyphenyl)acetamido)benzamido) acetic acid] | – | 273 | 2500 |
| CCCCCCCCc1ccc(C(=O)Oc2ccc(CN(CC(=O)O)C(=O)c3ccc(NC(=O)Cc4ccc(OC)cc4)cc3)cc2)cc1 [Compound 40, 2-(4-(2-(4-methoxyphenyl)acetamido)-N-(4-((4-octylbenzoyl)oxy)benzyl)benzamido)acetic acid] | – | 397 | 2100 |
| CCCCCCCCOc1ccc(C(=O)Oc2ccc(CN(CC(=O)O)C(=O)c3ccc(NC(=O)Cc4ccc(OC)cc4)cc3)cc2)cc1 [Compound 17, 2-(4-(2-(4-methoxyphenyl)acetamido)-N-(4-((4-(octyloxy)benzoyl)oxy)benzyl)benzamido) acetic acid] | – | 281 | 1500 |
| CCCCCCCOc1ccc(C(=O)Oc2ccc(CN(CC(=O)O)C(=O)c3ccc(NC(=O)Cc4ccc(C)c(OC)c4)cc3)cc2)cc1 [Compound 4, 2-(N-(4-((4-(heptyloxy)benzoyl)oxy)benzyl)-4-(2-(3-methoxy-4-methylphenyl)-acetamido)benzamido)acetic acid] | – | 371 | 2400 |
| CCCCCCOc1ccc(C(=O)Oc2ccc(CN(CC(=O)O)C(=O)c3ccc(NC(=O)Cc4ccc(OC)cc4)cc3)cc2)cc1 [Compound 18, 2-(N-(4-((4-(hexyloxy)benzoyl)oxy)benzyl)-4-(2-(4-methoxyphenyl)acetamido)benzamido) acetic acid] | – | 182 | 3100 |
| COc1ccc(CC(=O)Nc2ccc(C(=O)N(CC(=O)O)Cc3ccc(OC(=O)c4ccc(OCCC(C)C)cc4)cc3)cc2)cc1 [Compound 46, 2-(N-(4-((4-(isopentyloxy)benzoyl)oxy)benzyl)-4-(2-(4-methoxyphenyl)acetamido)benzamido) acetic acid] | – | 252 | 7000 |
| CCCCCCCCCOc1ccc(C(=O)Oc2ccc(CN(CC(=O)O)C(=O)c3ccc(NC(=O)Cc4ccc(OC)cc4)cc3)cc2)cc1 [Compound 16, 2-(4-(2-(4-methoxyphenyl)acetamido)-N-(4-((4-(nonyloxy)benzoyl)oxy)benzyl)benzamido) acetic acid] | – | 293 | 1200 |
